In the supplement of paper PMC10307832:

What was measured:
Test in all cases: relative viability (nuclei count vs DMSO), 5 days (fraction); higher = more cells survive
[1] = compound: CC1=CC=C(C=C1)C(=O)CN2C3=C(CCCC3)SC2=N [Pifithrin_alpha] + Nc1nc2[nH]cc(CCc3ccc(C(=O)N[C@@H](CCC(=O)O)C(=O)O)cc3)c2c(=O)[nH]1 [Pemetrexed] (partner 0.2 µM)
In short: (§1)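 Each reported value is a median over duplicate plates. It expresses relative viability: treated-well nuclei count divided by vehicle-well nuclei count. Lung cancer cell lines in 1536-well plates were dosed by pin tool a day after seeding, alone with one drug or with a fixed anchor-drug dose plus five library-drug doses (not always all listed) in √10 steps, and nuclei were counted after 5 days.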

Bemcentinib + Tozasertib = compound: Nc1nc(Nc2ccc3c(c2)CC[C@@H](N2CCCC2)CC3)nn1-c1cc2c(nn1)-c1ccccc1CCC2 [Bemcentinib] + Cc1cc(Nc2cc(N3CCN(C)CC3)nc(Sc3ccc(NC(=O)C4CC4)cc3)n2)n[nH]1 [Tozasertib] (partner 0.1 µM)
In short: as §1

[2] = compound: CC1=CC=C(C=C1)C(=O)CN2C3=C(CCCC3)SC2=N [Pifithrin_alpha] + O=C(CCCCCCC(=O)Nc1ccccc1)NO [Vorinostat] (partner 1 µM)
In short: as §1

Bemcentinib + Olaparib = compound: Nc1nc(Nc2ccc3c(c2)CC[C@@H](N2CCCC2)CC3)nn1-c1cc2c(nn1)-c1ccccc1CCC2 [Bemcentinib] + O=C(c1cc(Cc2n[nH]c(=O)c3ccccc23)ccc1F)N1CCN(C(=O)C2CC2)CC1 [Olaparib] (partner 8 µM)
In short: as §1

Cell Line	relative viability ([1]; first compound 1 µM)	relative viability ([1]; first compound 3.162 µM)	relative viability ([1]; first compound 10 µM)	relative viability ([1]; first compound 31.62 µM)	relative viability ([1]; first compound 100 µM)	relative viability (Bemcentinib + Tozasertib; first compound 0.04 µM)	relative viability (Bemcentinib + Tozasertib; first compound 0.1265 µM)	relative viability (Bemcentinib + Tozasertib; first compound 0.4 µM)	relative viability (Bemcentinib + Tozasertib; first compound 1.265 µM)	relative viability (Bemcentinib + Tozasertib; first compound 4 µM)	relative viability ([2]; first compound 1 µM)	relative viability ([2]; first compound 3.162 µM)	relative viability ([2]; first compound 10 µM)	relative viability ([2]; first compound 31.62 µM)	relative viability ([2]; first compound 100 µM)	relative viability (Bemcentinib + Olaparib; first compound 0.04 µM)	relative viability (Bemcentinib + Olaparib; first compound 0.1265 µM)	relative viability (Bemcentinib + Olaparib; first compound 0.4 µM)	relative viability (Bemcentinib + Olaparib; first compound 1.265 µM)	relative viability (Bemcentinib + Olaparib; first compound 4 µM)
NCI-H2347	0.406	0.416	0.441	0.485	0.447	0.56	0.602	0.525	0.593	0.72	0.541	0.533	0.685	0.459	0.536	0.58	0.587	0.553	0.659	0.611
NCI-H1648	0.805	0.49	0.924	0.655	0.671	0.571	0.424	0.584	0.391	0.49	0.523	0.473	0.378	0.347	0.421	1.3	0.925	0.746	0.777	0.695
NCI-H358	0.17	0.192	0.158	0.149	0.145	0.11	0.129	0.106	0.0963	0.119	0.733	0.708	0.867	0.344	0.545	0.59	0.622	0.598	0.593	0.669
NCI-H1944	0.562	0.55	0.59	0.457	0.512	0.258	0.261	0.255	0.251	0.242	0.503	0.572	0.505	0.351	0.395	0.413	0.414	0.418	0.436	0.424
UMC-11	0.866	0.869	0.824	0.723	1.08	0.214	0.192	0.2	0.198	0.204	0.342	0.382	0.343	0.245	0.256	0.366	0.678	0.322	0.352	0.384
PC-3 [JPC-3]		1.08		0.769	1.04	0.852	0.927	0.897	0.941	0.863		0.61		0.609	0.639	1.08	1.15	1.17	1.11	1.06
LU99A	0.183	0.243	0.19		0.172	0.263	0.31	0.248	0.264	0.258	0.491	0.646	0.373		0.463	0.27	0.259	0.244	0.259	0.286
CAL-12T	1.31	1.29	1.1		1.19	0.302	0.368	0.307	0.286	0.329	0.699	0.73	0.706		0.651	0.705	0.751	0.716	0.77	0.698
NCI-H2087	0.608	0.665	0.593	0.597	0.74	0.226	0.251	0.276	0.28	0.252	0.777	0.877	0.968	0.672	0.618	0.638	0.65	0.616	0.614	0.644
LCLC-97TM1		0.184	0.183		0.15	0.214	0.214	0.22	0.246	0.186		0.857	0.852		0.726	0.411	0.455	0.476	0.289	0.382
BEN	0.523	0.741	0.741	0.746	0.629	0.464	0.446	0.569	0.579	0.461	0.448	0.564	0.617	0.555	0.571	1.05	1.25	1.02	1.19	1.18
NCI-H1915	0.478	0.547	0.441		0.598	0.511	0.462	0.44	0.468	0.443	0.456	0.527	0.418		0.543	0.282	0.242	0.243	0.232	0.26
HARA	0.234	0.232	0.266	0.248	0.23	0.12	0.139	0.106	0.102	0.102		0.558	0.674	0.468	0.513	0.778	1.17	1.14	0.929	0.76
NCI-H1650	0.358	0.366	0.341	0.331	0.392	0.386	0.382	0.44	0.288	0.373	0.527	0.596	0.332	0.382	0.373	0.692	0.822	0.818	0.77	0.739
EMC-BAC-2	0.443	0.435	0.416	0.383	0.418	0.264	0.281	0.285	0.305	0.301		0.413		0.328	0.413	0.491	0.511	0.488	0.468	0.482
HCC-44	0.56	0.584	0.667	0.519	0.574	0.913	1.46	0.872	0.956	0.888	1.04	0.924	0.91	0.834	0.902	1.04	1.04	0.981	0.974	1.02
LOU-NH91	0.398	0.362	0.307	0.332	0.359	0.651	0.639	0.635	0.709	0.63	0.8	0.868	0.821	0.597	0.739	0.886	0.848	0.942	0.927	0.937
